These results are taken from patent US20080318970A1, “Treatment of Infectious Diseases” (priority 2004, published 2008).

One data set relates to HIV-1 strain HTLV-IIIB. The data set can be described thus: Inhibition of HIV-1 replication in MT4 cells (MTT assay). In kind it is cell-based. The settings on record: Human immunodeficiency virus 1, IIIB, 144 h; compound alone; MT4 cells, six days. The protocol:
Each experiment was repeated in tripleduplicate. MIC values represent the mean values of two separate experiments.
The HIV-1 strain HTLV-IIIB were propagated in H9 cells at 37° C., 5% CO2 using RPMI 1640 with 10% heat-inactivated foetal calf serum (FCS) and antibiotics (growth medium). Culture supernatant was filtered ([…]), aliquotted, and stored at −80° C. until use. The HIV-1 strain was obtained from NIH AIDS Research and Reference Program.
(§1) Compounds were examined for possible antiviral activity against strain 111B of HIV-1 using MT4 cells as target cells. MT4 cells were incubated with virus (0.005 MOI) and growth medium containing the test dilutions of compound(s) for six days in parallel with virus-infected and uninfected control cultures without compound added. Expression of HIV in the cultures was indirectly quantified using the MTT assay as previously described. Compounds mediating less than 30% reduction of HIV expression were considered without biological activity. Compounds were tested in parallel for cytotoxic effect in uninfected MT4 cultures containing the test dilutions of compound as described above. Cultures for test of both antiviral activity and cytotoxic effect were set up in tripleduplicates, […] per culture in micro titre plates.
The 50% inhibitory concentration was determined by interpolation from the plots of percent inhibition versus concentration of compound.
EC50 is defined as the effective concentration that inhibits 50% of viral production, 50% of viral infectivity, or 50% of the virus-induced cytopathic effect.

Data set [1] in a line: Cytotoxic effect in uninfected MT4 cultures. Type of data set: cell-based. The settings on record: human, uninfected MT4 cells; compound alone; uninfected MT4. The protocol: as §1
CC50 is defined as the inhibitory concentration that reduces cellular growth or viability of uninfected cells by 50%.

For data set [2], the system named is E. coli, LN 3164. The data set can be described thus: MIC susceptibility test, microdilution broth method (NCCLS), chemosensitising compound alone. To be noted: 37° C., 16 h. Type of data set: cell-based. The protocol: Bacteria were sub-cultured on Mueller-Hinton agar plates and incubated over night at 37° C. Pre-warmed Mueller-Hinton broth was inoculated with colonies from the plate and incubated for approximately three hours to achieve a log phase culture. The log phase culture of bacteria was diluted with fresh pre-warmed medium and adjusted to a defined Optical Density (OD) at 600 nm in order to give a final assay concentration of 1×10^4 bacteria/ml medium.
Cell growth was tested using the MIC susceptibility tests by use of the microdilution broth method in accordance to the NCCLS Guidelines (NCCLS Guidelines, Methods for Dilution Antimicrobial Susceptibility Tests for Bacteria That Grow Aerobically; Approved Standard, Sixth Edition, Volume 23; Number 2). A 100% Mueller-Hinton broth and a bacterial concentration of 1×10^4/ml were used.
A log phase culture of bacteria was diluted with fresh pre-warmed medium and adjusted to a defined OD at 600 nm in order to give a final concentration of 1×10^4 bacteria/ml medium in each well. Each chemosensitising compound was added to the bacterial culture in the wells in two-fold dilutions in order to give final concentrations ranging from 8 to 500 μg/ml. Trays were incubated at 37° C. for 16 h. Minimal Inhibitory Concentration, (MIC) is defined as the lowest inhibitory concentration showing no visible growth according to the NCCLS Guidelines.

The subject of data set [3] is E. coli, LN 3164. The experiment in a line: Effect of chemosensitising compounds on DR (DR ratio) with ciprofloxacin, microtiter assay. Type of data set: cell-based. The settings on record: MIC ciprofloxacin alone / MIC ciprofloxacin + chemosensitising compound at ¼ of its MIC; E. coli LN 3164. The protocol: The effects of the chemosensitising compounds on DR were studied by the microtiter assay described above by exposing cells to 0-64 μg/ml anti-infective drug in the absence or presence of chemosensitising compound. Each experiment was repeated in tripleduplicate. MIC values represent the mean values of two separate experiments.
A log phase culture of bacteria was diluted with fresh pre-warmed medium and adjusted to a defined OD at 600 nm in order to give a final concentration of 1×10^4 bacteria/ml medium in each well. […] Anti-infective agent was added to the bacterial culture in the wells in two-fold dilutions in order to give final concentrations ranging from 0 to 64 μg/ml. Trays were incubated at 37° C. for 16 h. The DR ratio was defined as the ratio between the MIC value for anti-infective agent alone divided by the MIC for the anti-infective agent in the presence of the chemosensitising compound. This ratio represents the increase in apparent potency of the anti-infective agent caused by the chemosensitising compound, and may be expressed as
DR ratio=(MICanti-infective agent)/(MICanti-infective agent+chemosensitising compound)

A further data set deals with E. faecalis F84. The data set can be described thus: Checkerboard combination study (FIC index). Type of data set: cell-based, Enterococcus faecalis. To be noted: MDR isolate. The protocol: Enterococcus faecalis, F84. A multidrug resistant clinical isolate.
(§2) The synergistic effect was studied by checkerboard combination studies exposing cells to 0-64 μg/ml anti-infective agent in the absence or presence of trans-flupenthixol, cis-flupenthixol or trans-clopenthixol. Each experiment was repeated in tripleduplicate. MIC values represent the mean values of two separate experiments,
A log phase culture of bacteria was diluted with fresh pre-warmed medium and adjusted to a defined OD at 600 nm in order to give a final concentration of 1×10^4 bacteria/ml medium in each well. […] Anti-infective agent was added to the bacterial culture in the wells in two-fold dilutions in order to give final concentrations ranging from 0 to 64 μg/ml Trays were incubated at 37° C. for 16 h. Wells were assessed visually for growth. The Fractional Inhibitory Concentration (FIC) was calculated for each anti-infective agent alone and in combination with trans-flupenthixol, cis-flupenthixol or trans-clopenthixol. The following formulae were used to calculate the FIC index:
(§3) FIC=FICchemosensitising compound+FICanti-infective agent
(§4) FICchemosensitising compound=(MICchemosensitising compound+anti-infective agent)/(MICchemosensitising compound)
(§5) FICanti-infective agent=(MICanti-infective agent+chemosensitising compound/(MICanti-Infective agent)
(§6) Synergy was defined as a FIC index of <0.5.

In another data set the test system is E. faecalis F86. The data set can be described thus: Checkerboard combination study (FIC index). Type of data set: cell-based, Enterococcus faecalis. The settings on record: anti-infective agent Dicloxacillin; isolate susceptible (S). The protocol:
Enterococcus faecalis, F86. Susceptible clinical isolate. No development of resistance.
as §2
(§7) A log phase culture of bacteria was diluted with fresh pre-warmed medium and adjusted to a defined OD at 600 nm in order to give a final concentration of 1×10^4 bacteria/ml medium in each well. Each chemosensitising compound was added to the bacterial culture in the wells in two-fold dilutions in order to give final concentrations ranging from 0 to 8 μg/ml. Anti-infective agent was added to the bacterial culture in the wells in two-fold dilutions in order to give final concentrations ranging from 0 to 64 μg/ml Trays were incubated at 37° C. for 16 h. Wells were assessed visually for growth. The Fractional Inhibitory Concentration (FIC) was calculated for each anti-infective agent alone and in combination with trans-flupenthixol, cis-flupenthixol or trans-clopenthixol. The following formulae were used to calculate the FIC index:
as §3, §4, §5, §6

The test system of the next data set is S. aureus E45. The data set can be described thus: Checkerboard combination study (FIC index). Type of data set: cell-based, Staphylococcus aureus. To be noted: isolate resistant (R). The protocol: Staphylococcus aureus E45 MRSA. Clinical isolate. Resistant to methicillin. Susceptible to teicoplanin chloramphenicol, fosfomycin, netilmicin and vancomycin.
as §2, §7, §3, §4, §5, §6

Another data set deals with S. aureus O11. The data set can be described thus: Checkerboard combination study (FIC index). The settings on record: anti-infective agent Dicloxacillin; isolate susceptible (S). In kind it is cell-based, Staphylococcus aureus. The protocol: Staphylococcus aureus O11. Clinical isolate resistant to penicillin. Susceptible to methicillin, tetracycline, beta-lactams, fluoroquinolones, chloramphenicol and aminoglycosides.
as §2, §7, §3, §4, §5, §6

In a further data set the test system is E. coli LN 3164. The data set can be described thus: Checkerboard combination study (FIC index). Type of data set: cell-based. The settings on record: MDR isolate. The protocol:
E. coli, LN 3164. Acr AB-ToIC MDR in vitro-selected mutant. Resistant to tetracycline, beta-lactams, fluoroquinolones, chloramphenicol and aminoglycosides.
as §2, §7, §3, §4, §5, §6

In the next data set the test system is E. coli 331ME. The data set can be described thus: Checkerboard combination study (FIC index). In kind it is cell-based. The settings on record: MDR isolate. The protocol:
E. coli 331 ME. In vivo-selected multidrug resistant clinical isolates of E. coli. Strains were isolated from a patient with severe cystitis/urosepsis. Resistant to tetracycline, beta-lactams, fluoroquinolones, chloramphenicol and aminoglycosides.
as §2, §7, §3, §4, §5, §6

The subject of the next data set is P. aeruginosa 432b. The data set can be described thus: Checkerboard combination study (FIC index). The settings on record: isolate resistant (R). In kind it is cell-based. The protocol:
P. aeruginosa 432b. Clinical multidrug resistant isolate. Resistant to tetracycline, beta-lactams, fluoroquinolones, and aminoglycosides. Beta-lactamase producing, changes in Penicillin Binding Proteins and changes in Outer Membrane Proteins.
as §2, §7, §3, §4, §5, §6

The conditions of data set [4]: clinical trial versus placebo, Johnstone et al.; cited from earlier work.
Data set [5] deals with non-resistant mouse pathogen isolate of Streptococcus pneumoniae. The settings on record: Kristiansen et al. 1998; cited from earlier work.
Setting [6] is: anti-infective agent Dicloxacillin.
[7] abbreviates: anti-infective agent Ciprofloxacin.
[8] abbreviates: anti-infective agent Gentamicin.
[9] abbreviates: anti-infective agent Piperacillin.

`Cc1cn([C@H]2C[C@H](N=[N+]=[N-])[C@@H](CO)O2)c(=O)[nH]c1=O` [AZT, 3′-Azido-3′-deoxythymidine, reference compound]: a half-maximal response in the data set on HIV-1 strain HTLV-IIIB (EC50) required 50 nM. Besides, the 50% cytotoxic concentration (CC50) at 6 days in [1] is above 3000 nM.
Consider `OCCN1CCN(CC/C=C2\c3ccccc3Sc3ccc(C(F)(F)F)cc32)CC1` [trans-flupenthixol], for which the MIC in the data set on E. coli, LN 3164 [2] came to 32 µg/mL. The DR ratio with E. coli, LN 3164 [3] was 64. The FIC index with E. faecalis F84 (setting [6]) amounted to 0.06; with E. faecalis F84 (anti-infective agent Vanomycin), 0.13; in the data set with E. faecalis F86, 0.50; with S. aureus E45 (setting [6]), 0.13; in the data set on S. aureus E45 (anti-infective agent Fucidic acid), 0.13; in the data set on S. aureus O11 it was 0.50. Further, the FIC index in the data set with E. coli LN 3164 (setting [7]) was determined as 0.13; in the data set on E. coli LN 3164 (setting [8]), 0.063; with E. coli LN 3164 (setting [9]) it was 0.13; in the data set on E. coli 331ME (setting [7]), 0.006; in the data set with E. coli 331ME (setting [8]) it was 0.02; in the data set with E. coli 331ME (setting [9]) it was 0.13. Further, the FIC index is 0.03 in the data set with P. aeruginosa 432b (setting [7]), 0.06 with P. aeruginosa 432b (setting [8]) and 0.13 in the data set on P. aeruginosa 432b (setting [9]). Moreover, in data set [4], the “anti-psychotic effect (in words)” value was “no activity as an anti-psychotic”.
As to penicillin, in data set [5], the MIC was 0.02 µg/mL.
